Reference: ChEMBL document CHEMBL2346648, “A series of thiazole derivatives bearing thiazolidin-4-one as non-competitive ADAMTS-5 (aggrecanase-2) inhibitors” (Bioorg Med Chem Lett, 2013)

Assays:
[1] = molecular target: T1, A disintegrin and metalloproteinase with thrombospondin motifs 5 (Bos taurus) (UniProt Q9TT92); assay: Ex vivo inhibition of ADAMTS-5-mediated aggrecan degradation in IL-1-stimulated bovine cartilage explant at 30 uM
T1 sequence (whole entry): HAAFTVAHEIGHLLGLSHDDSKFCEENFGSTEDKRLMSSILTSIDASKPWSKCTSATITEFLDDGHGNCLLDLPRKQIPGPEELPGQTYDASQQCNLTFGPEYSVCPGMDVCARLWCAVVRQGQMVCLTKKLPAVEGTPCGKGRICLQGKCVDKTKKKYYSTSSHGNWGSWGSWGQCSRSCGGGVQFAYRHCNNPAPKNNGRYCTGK

[2] = molecular target: Disintegrin and metalloproteinase domain-containing protein 17 (Homo sapiens, UniProt P78536); assay: Inhibition of TACE (unknown origin)
[3] = Intrinsic clearance in […]; assay type: ADME
[4] = molecular target: T2, A disintegrin and metalloproteinase with thrombospondin motifs 5 (Homo sapiens, UniProt Q9UNA0); assay: Inhibition of human His-tagged ADAMTS-5 using QF-peptide as substrate by FRET method
T2 sequence (Q9UNA0 whole entry): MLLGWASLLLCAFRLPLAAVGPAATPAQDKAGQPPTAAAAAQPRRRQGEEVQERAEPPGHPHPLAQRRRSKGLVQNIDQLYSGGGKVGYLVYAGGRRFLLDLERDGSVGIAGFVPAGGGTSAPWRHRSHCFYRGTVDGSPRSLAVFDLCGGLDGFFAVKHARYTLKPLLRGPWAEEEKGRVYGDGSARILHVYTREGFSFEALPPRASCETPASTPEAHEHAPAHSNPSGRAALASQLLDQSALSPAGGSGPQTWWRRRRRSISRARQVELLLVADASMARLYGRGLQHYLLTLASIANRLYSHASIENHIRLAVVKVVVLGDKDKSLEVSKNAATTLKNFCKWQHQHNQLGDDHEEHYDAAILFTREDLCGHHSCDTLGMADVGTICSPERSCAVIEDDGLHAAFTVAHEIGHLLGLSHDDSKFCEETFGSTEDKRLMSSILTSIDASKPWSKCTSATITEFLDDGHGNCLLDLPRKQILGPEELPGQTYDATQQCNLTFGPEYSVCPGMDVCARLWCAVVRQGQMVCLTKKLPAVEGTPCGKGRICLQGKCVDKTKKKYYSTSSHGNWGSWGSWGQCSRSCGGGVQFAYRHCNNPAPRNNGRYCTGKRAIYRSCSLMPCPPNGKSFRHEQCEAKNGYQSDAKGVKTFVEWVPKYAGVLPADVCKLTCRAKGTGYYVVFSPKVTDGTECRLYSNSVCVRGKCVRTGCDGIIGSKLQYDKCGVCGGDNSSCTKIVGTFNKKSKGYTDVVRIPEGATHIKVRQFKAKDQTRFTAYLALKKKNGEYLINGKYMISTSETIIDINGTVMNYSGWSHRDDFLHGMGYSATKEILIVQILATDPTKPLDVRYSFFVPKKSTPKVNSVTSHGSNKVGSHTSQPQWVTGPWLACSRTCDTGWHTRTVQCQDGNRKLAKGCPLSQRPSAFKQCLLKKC

[5] = molecular target: Matrix metalloproteinase-14 (Homo sapiens, UniProt P50281); assay: Inhibition of MMP14 (unknown origin) by FRET method
Stromelysin-1 = Stromelysin-1 (Homo sapiens, UniProt P08254); assay: Inhibition of MMP3 (unknown origin) by FRET method
[6] = Apparent permeability from apical to basolateral side of MDCK cells by transwell assay; assay type: ADME, cell-based, Canis lupus familiaris; conditions: dog
[7] = molecular target: T3, A disintegrin and metalloproteinase with thrombospondin motifs 13 (Homo sapiens, UniProt Q76LX8); assay: Inhibition of ADAMTS-13 (unknown origin)
T3 sequence (Q76LX8 whole entry): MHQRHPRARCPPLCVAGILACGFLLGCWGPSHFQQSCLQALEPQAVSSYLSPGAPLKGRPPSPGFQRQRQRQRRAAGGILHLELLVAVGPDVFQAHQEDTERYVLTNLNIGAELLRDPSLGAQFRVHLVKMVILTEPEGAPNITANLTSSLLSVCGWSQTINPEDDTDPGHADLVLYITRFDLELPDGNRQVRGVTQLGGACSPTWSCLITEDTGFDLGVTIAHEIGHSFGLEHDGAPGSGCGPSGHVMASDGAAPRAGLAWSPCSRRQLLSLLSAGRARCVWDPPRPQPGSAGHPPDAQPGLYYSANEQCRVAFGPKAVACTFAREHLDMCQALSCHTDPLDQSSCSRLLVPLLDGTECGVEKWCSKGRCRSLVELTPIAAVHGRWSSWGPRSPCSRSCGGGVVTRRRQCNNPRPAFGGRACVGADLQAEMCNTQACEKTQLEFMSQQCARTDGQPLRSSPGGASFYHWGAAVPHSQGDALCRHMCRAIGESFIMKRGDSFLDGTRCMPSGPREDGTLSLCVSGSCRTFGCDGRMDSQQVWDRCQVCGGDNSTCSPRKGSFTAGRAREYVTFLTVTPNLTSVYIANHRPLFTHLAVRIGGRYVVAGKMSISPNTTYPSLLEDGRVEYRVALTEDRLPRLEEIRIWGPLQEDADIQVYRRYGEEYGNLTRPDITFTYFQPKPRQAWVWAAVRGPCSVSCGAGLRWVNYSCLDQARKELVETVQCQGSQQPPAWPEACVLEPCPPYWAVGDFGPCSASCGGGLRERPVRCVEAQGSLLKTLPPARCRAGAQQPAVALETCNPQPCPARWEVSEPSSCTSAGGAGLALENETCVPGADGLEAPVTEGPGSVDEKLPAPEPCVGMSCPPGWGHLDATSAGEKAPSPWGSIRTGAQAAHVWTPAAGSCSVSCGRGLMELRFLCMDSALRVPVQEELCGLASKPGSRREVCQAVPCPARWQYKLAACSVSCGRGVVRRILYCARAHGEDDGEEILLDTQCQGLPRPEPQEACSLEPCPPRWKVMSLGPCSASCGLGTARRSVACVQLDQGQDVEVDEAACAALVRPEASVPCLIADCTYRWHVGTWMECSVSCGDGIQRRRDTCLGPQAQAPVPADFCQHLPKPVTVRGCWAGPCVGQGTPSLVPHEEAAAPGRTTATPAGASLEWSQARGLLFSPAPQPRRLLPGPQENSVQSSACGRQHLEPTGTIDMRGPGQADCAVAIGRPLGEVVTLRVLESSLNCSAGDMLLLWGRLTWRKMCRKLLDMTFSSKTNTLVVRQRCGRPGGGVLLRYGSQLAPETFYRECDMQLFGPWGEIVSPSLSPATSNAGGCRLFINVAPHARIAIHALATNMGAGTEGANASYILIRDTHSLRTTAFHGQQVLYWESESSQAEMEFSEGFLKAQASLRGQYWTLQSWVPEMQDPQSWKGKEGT

[8] = molecular target: T4, A disintegrin and metalloproteinase with thrombospondin motifs 5 (Bos taurus, UniProt Q9TT92); assay: Ex vivo inhibition of ADAMTS-5-mediated aggrecan degradation in IL-1-stimulated bovine cartilage explant
T4 sequence (Q9TT92 whole entry): T1 sequence (whole entry)

Disintegrin and metalloproteinase domain-containing protein 17, sequence (P78536 whole entry, the tested form may be a part): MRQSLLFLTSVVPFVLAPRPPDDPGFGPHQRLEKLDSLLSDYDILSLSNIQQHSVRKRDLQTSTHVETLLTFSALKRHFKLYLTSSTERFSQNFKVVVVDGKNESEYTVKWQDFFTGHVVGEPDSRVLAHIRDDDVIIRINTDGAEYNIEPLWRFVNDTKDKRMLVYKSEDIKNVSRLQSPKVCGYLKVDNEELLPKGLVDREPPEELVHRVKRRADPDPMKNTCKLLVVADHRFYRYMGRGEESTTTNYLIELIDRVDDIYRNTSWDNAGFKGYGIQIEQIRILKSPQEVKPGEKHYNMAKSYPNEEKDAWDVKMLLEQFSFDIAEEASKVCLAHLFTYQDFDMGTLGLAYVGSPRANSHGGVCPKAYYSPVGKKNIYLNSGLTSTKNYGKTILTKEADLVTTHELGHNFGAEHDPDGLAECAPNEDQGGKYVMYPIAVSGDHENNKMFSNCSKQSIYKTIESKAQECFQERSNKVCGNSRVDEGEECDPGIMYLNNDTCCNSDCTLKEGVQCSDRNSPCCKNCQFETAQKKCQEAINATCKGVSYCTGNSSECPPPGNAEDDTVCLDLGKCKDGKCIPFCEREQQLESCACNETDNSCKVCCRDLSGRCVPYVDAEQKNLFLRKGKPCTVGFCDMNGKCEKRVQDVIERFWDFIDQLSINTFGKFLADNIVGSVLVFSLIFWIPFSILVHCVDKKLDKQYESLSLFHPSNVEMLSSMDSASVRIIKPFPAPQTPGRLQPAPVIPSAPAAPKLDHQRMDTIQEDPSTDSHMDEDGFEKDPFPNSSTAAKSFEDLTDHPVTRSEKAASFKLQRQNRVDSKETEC
Stromelysin-1, sequence (P08254 whole entry): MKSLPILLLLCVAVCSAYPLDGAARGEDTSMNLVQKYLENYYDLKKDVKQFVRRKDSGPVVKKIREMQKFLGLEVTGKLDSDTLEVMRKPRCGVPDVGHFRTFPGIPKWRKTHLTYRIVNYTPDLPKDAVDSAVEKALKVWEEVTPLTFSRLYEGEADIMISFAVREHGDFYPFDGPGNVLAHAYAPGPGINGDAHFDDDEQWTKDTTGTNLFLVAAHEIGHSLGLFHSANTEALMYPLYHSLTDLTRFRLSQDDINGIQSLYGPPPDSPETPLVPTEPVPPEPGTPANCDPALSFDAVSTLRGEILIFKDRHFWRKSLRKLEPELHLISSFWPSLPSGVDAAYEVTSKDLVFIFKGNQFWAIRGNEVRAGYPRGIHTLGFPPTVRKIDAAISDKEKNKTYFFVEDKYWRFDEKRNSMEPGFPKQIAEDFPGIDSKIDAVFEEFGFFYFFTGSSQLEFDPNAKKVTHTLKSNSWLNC

Compound: O=C(O)CCc1sc(/C=C2\NC(=O)CS2)nc1-c1ccccn1
- inhibition [1]: 66%
- IC50 [2]: > 30 µM
- CLint scaled [3]: 2.7 mL/min/kg
- IC50 [4]: 0.23 µM
- IC50 [5]: 24 µM
- IC50 (Stromelysin-1): > 30 µM
- Papp A→B [6]: 5.55 ×10⁻⁶ cm/s
- IC50 [7]: 20 µM
- IC50 [8]: 22 µM
